The results in this text go back to PubChem BioAssay (NCI).

Test systems include U251 CNS; 786-0 renal; UACC-62 melanoma; HL-60(TB) leukemia; SN12C renal; IGROV1 ovarian; SF-295 CNS; MCF7 breast; HCT-15 colon; NCI-H460 lung.
What all share (experiment): NCI anticancer screen, dose series, 48 h

Where “and” joins values, the source holds several entries; their conditions need not be identical. Equal values may be shown once.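 Protocol summary: plate cells (96-well), add compound at 5 concentrations, incubate 48 h, interpolate endpoints linearly. The concentration for 50% growth inhibition is given as GI50. TGI marks complete inhibition of growth.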

With `Clc1ccc(COC(Cn2ccnc2)c2ccc(Cl)cc2Cl)cc1` (centres undefined), the GI50 was 2.04 µM in the test on U251 CNS; 1.88 µM in the test on 786-0 renal; 2.16 µM with UACC-62 melanoma; 2.42 µM with HL-60(TB) leukemia; 2.5 µM in the test with SN12C renal; 2.62 µM in the test on IGROV1 ovarian. For the same compound, the GI50 is 1.9 µM in the test with SF-295 CNS, 2.43 µM in the test with MCF7 breast, 3.24 µM with HCT-15 colon and 2.69 µM in the test on NCI-H460 lung. Also, the TGI in the test on U251 CNS is 7.46 µM and 28.6 µM and 26 µM; with 786-0 renal, 4.01 µM and 25.8 µM and 26.3 µM; in the test on UACC-62 melanoma it was 11.9 µM and 25.2 µM and 22.3 µM; in the test on HL-60(TB) leukemia it was 5.2 µM and 22.7 µM and 16.6 µM; in the test with SN12C renal, 12.7 µM and 25.3 µM; in the test on IGROV1 ovarian it was 12.3 µM and 25.8 µM and 26.1 µM. Further, the TGI in the test with SF-295 CNS is 8.99 µM and 24 µM and 23.6 µM; with MCF7 breast it was 6.63 µM and 28.7 µM and 24 µM; with HCT-15 colon, 12.7 µM and 27.5 µM; in the test with NCI-H460 lung, 10.1 µM and 44.4 µM and 28.7 µM.

In the case of `CC(C)n1c(/C=C/[C@@H](O)C[C@@H](O)CC(=O)O)c(-c2ccc(F)cc2)c2ccccc21`, the GI50 in the test on U251 CNS is 0.455 µM and 0.558 µM; in the test with 786-0 renal it was 4.71 µM and 5.31 µM; in the test with UACC-62 melanoma it was 0.526 µM and 0.537 µM; in the test on HL-60(TB) leukemia, 14.5 µM and 10.9 µM; in the test with SN12C renal, 0.7 µM and 0.598 µM; in the test on IGROV1 ovarian, 2.99 µM and 2.68 µM. For the same compound, the GI50 is 0.361 µM and 0.429 µM with SF-295 CNS; 20.7 µM and 16.6 µM with MCF7 breast; 3.04 µM and 1.66 µM in the test on HCT-15 colon; 3.91 µM and 4.98 µM in the test on NCI-H460 lung. Also, the TGI in the test on U251 CNS is above 100 µM; in the test on 786-0 renal, above 100 µM; in the test on UACC-62 melanoma it was 34.4 µM and 25 µM; with HL-60(TB) leukemia, 55.2 µM and > 100 µM; in the test with SN12C renal, above 100 µM; with IGROV1 ovarian it was above 100 µM. The TGI in the test on MCF7 breast, in the test with HCT-15 colon and in the test on NCI-H460 lung was above 100 µM each time.

In the case of `COC(=O)c1ccc2c(c1)C(NC(C)=O)CCc1cc(OC)c(OC)c(OC)c1-2` (centres undefined), the TGI with U251 CNS is 16.5 µM; in the test on 786-0 renal, 93.3 µM; in the test with UACC-62 melanoma, above 100 µM; in the test on HL-60(TB) leukemia it was 0.0285 µM; with SN12C renal it was above 96.1 µM; in the test on IGROV1 ovarian, above 41.1 µM. The TGI was 3.03 µM in the test with SF-295 CNS, above 100 µM in the test on MCF7 breast, above 44.3 µM in the test on HCT-15 colon and 3.23 µM in the test with NCI-H460 lung.

On to `O=C(Nc1ccc(OC(F)(F)F)cc1)c1sccc1NCc1ccnc2ccccc12`, for which the GI50 in the test on U251 CNS is 6.92 µM; with 786-0 renal it was 7.53 µM; in the test on UACC-62 melanoma it was 1.89 µM; with HL-60(TB) leukemia, 1.78 µM; in the test on SN12C renal, 2.97 µM; with IGROV1 ovarian, 1.68 µM. Also, the GI50 in the test with SF-295 CNS was 2.63 µM; in the test on MCF7 breast it was 4.19 µM; in the test with HCT-15 colon it was 3.22 µM; with NCI-H460 lung, 4.01 µM. For the same compound, the TGI in the test on U251 CNS was above 100 µM; with 786-0 renal, above 88.1 µM; in the test on UACC-62 melanoma, 14.9 µM; in the test with HL-60(TB) leukemia, 19.3 µM; in the test on SN12C renal, above 100 µM; in the test with IGROV1 ovarian it was 6.37 µM. Besides, the TGI with SF-295 CNS was above 45.7 µM; with MCF7 breast, 36 µM; with HCT-15 colon it was above 66.7 µM; in the test on NCI-H460 lung, above 100 µM.

`NS(=O)(=O)c1ccc(N2Cc3cc(Cl)ccc3OC3=C2C(=O)N(CC2CCCCC2)C3=O)cc1`: the GI50 with U251 CNS was 1.3 µM; with 786-0 renal, 0.207 µM; in the test on UACC-62 melanoma, 0.377 µM; with HL-60(TB) leukemia, 0.283 µM; in the test with SN12C renal it was 1.01 µM; in the test with IGROV1 ovarian, 1.34 µM. Further, the GI50 in the test with SF-295 CNS was 1.81 µM; in the test on MCF7 breast, 0.364 µM; with HCT-15 colon it was 0.344 µM; in the test on NCI-H460 lung it was 1.72 µM. The TGI was determined as 2.65 µM in the test on U251 CNS; 0.482 µM in the test on 786-0 renal; 1.61 µM in the test with UACC-62 melanoma; 0.828 µM in the test on HL-60(TB) leukemia; 2.57 µM in the test on SN12C renal; 2.83 µM in the test with IGROV1 ovarian. For the same compound, the TGI turned out to be 4.03 µM in the test on SF-295 CNS, 1.9 µM in the test with MCF7 breast, 1.45 µM with HCT-15 colon and 4.04 µM in the test on NCI-H460 lung.

For `CSc1ccc(C2=Nn3c(nnc3-c3ccc(F)c(Cl)c3)SC2)cc1`, the GI50 in the test with U251 CNS is 3.85 µM; in the test with 786-0 renal it was 13.5 µM; in the test on UACC-62 melanoma, 2.04 µM; in the test on HL-60(TB) leukemia, 5.39 µM; in the test with SN12C renal, 2.67 µM; with IGROV1 ovarian, 13.1 µM. The GI50 was 3.57 µM in the test with SF-295 CNS, 7.54 µM with MCF7 breast, 10.1 µM in the test on HCT-15 colon and 14.6 µM in the test on NCI-H460 lung. Also, the TGI in the test with U251 CNS is 13.8 µM; in the test with 786-0 renal, 32 µM; with UACC-62 melanoma it was 8.19 µM; in the test on HL-60(TB) leukemia, above 100 µM; with SN12C renal it was 9.78 µM; in the test with IGROV1 ovarian, 44.4 µM. The TGI in the test with SF-295 CNS is 17.5 µM; in the test on MCF7 breast, 25.8 µM; with HCT-15 colon it was above 100 µM; in the test with NCI-H460 lung, 38.6 µM.

For `CCOC(=O)c1c(NC(=O)c2ccc(C(C)C)cc2)sc2c(CN(C)C)c(O)ccc12`, the GI50 is 2.59 µM in the test on U251 CNS; 1.79 µM with 786-0 renal; 1.82 µM in the test with UACC-62 melanoma; 1.77 µM in the test with HL-60(TB) leukemia; 4.53 µM with SN12C renal; 2.89 µM in the test with IGROV1 ovarian. The GI50 in the test on SF-295 CNS was 1.86 µM; in the test on MCF7 breast, 1.75 µM; in the test on HCT-15 colon, 1.17 µM; in the test with NCI-H460 lung, 1.88 µM. Further, the TGI in the test with U251 CNS came out at 7.13 µM; in the test on 786-0 renal it was 3.36 µM; with UACC-62 melanoma it was 3.48 µM; in the test with HL-60(TB) leukemia, 4.2 µM; in the test with SN12C renal, 17.9 µM; in the test on IGROV1 ovarian, 8.69 µM. Further, the TGI was found to be 3.45 µM in the test with SF-295 CNS, 3.77 µM in the test with MCF7 breast, 2.74 µM in the test on HCT-15 colon and 3.6 µM in the test with NCI-H460 lung.

For `C#C[C@]1(O)CC[C@H]2[C@@H]3CC=C4c5nc(Nc6ccccn6)sc5CC[C@]4(C)[C@H]3CC[C@@]21C`, the GI50 in the test on U251 CNS is 0.541 µM; in the test with 786-0 renal, 0.389 µM; in the test on UACC-62 melanoma, 1.15 µM; with HL-60(TB) leukemia it was 0.398 µM; in the test on SN12C renal, 1.75 µM; in the test on IGROV1 ovarian, 2.27 µM. For the same compound, the GI50 in the test with SF-295 CNS is 0.218 µM; with MCF7 breast it was 0.968 µM; in the test with HCT-15 colon it was 1.27 µM; with NCI-H460 lung, 1.21 µM. Moreover, the TGI in the test on U251 CNS was 2.13 µM; in the test on 786-0 renal, 1.69 µM; in the test with UACC-62 melanoma it was 2.68 µM; in the test on HL-60(TB) leukemia, 1.96 µM; with SN12C renal, 3.62 µM; in the test with IGROV1 ovarian it was 10.9 µM. The TGI in the test on SF-295 CNS was 0.489 µM; in the test on MCF7 breast, 3.73 µM; with HCT-15 colon it was 2.94 µM; with NCI-H460 lung, 2.83 µM.
